Series [1] concerns the target T1, E. coli DNA gyrase (Escherichia coli (strain K12), UniProt P0AES4+P0AES6). In words: SDFQ HTS primary assay (1536-well, pAB1_FL905). Conditions: for inhibition at 5 µM: read-out: inhibition activities against E. coli DNA gyrase. It is filed as biochemical.
Description: SDFQ HTS primary assay using pAB1_FL905 was performed in 2 µL of (1 xDNA gyrase buffer: 20 mM Tris-Acetate pH 7.9, 50 mM KAc, 10 mM MgCl2, 2 mM DTT, 1 mM ATP, 0.1 mg/mL BSA). […] 3) Spun plate at 800 rpm for 30 seconds.
For series [2], the target named is T1, E. coli DNA gyrase. The conditions noted are these: known inhibitors of the LOPAC library; read-out: inhibition IC50 against E. coli DNA gyrase; cited from earlier work.
In series [3] the target is human DNA topoisomerase I (Homo sapiens (Human), UniProt P11387). Briefly: Human DNA topoisomerase I inhibition. It is filed as biochemical. Conditions: gallates at 100 µM.
Sequence of human DNA topoisomerase I (P11387 whole entry): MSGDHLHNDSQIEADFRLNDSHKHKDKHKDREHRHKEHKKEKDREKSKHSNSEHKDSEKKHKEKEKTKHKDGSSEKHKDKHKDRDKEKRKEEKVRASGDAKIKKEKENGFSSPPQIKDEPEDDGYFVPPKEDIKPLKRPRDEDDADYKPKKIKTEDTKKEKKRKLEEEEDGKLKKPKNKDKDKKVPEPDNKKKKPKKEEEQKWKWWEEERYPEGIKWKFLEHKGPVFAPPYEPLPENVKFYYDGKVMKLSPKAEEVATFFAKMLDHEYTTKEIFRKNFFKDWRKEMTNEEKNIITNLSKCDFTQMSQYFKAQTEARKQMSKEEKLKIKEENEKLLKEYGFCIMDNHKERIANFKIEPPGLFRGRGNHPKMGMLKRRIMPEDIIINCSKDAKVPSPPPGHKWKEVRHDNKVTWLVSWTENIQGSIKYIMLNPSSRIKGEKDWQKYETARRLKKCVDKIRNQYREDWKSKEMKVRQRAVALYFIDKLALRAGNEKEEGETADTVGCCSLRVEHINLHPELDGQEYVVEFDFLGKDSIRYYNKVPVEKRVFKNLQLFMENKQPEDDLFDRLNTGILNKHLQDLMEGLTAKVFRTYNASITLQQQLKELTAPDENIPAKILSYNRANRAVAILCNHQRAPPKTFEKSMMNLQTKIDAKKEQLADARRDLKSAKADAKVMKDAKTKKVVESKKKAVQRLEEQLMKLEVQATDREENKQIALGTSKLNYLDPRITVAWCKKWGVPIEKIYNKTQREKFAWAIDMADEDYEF
Another series concerns the target Mtb DNA gyrase (Mycobacterium tuberculosis (strain ATCC 25618 / H37Rv), UniProt P9WG45+P9WG47). Briefly: Mtb DNA gyrase inhibition assay (gel-based). The class given is biochemical. Conditions: for IC50: Table 10, read-out: IC50 (µM) Mtb gyrase. Here is the method: The IC50 against E. coli (A) and Mtb (C) gyrase were determined using the gel-based gyrase inhibition assays. The gyrase mediated DNA cleavage assays (B and D) were performed using pBR322. (A) 229 inhibits E. coli gyrase. Lane 1, rx pAB1. […] Lane 1, rx pAB1. […] 100 µM of CPDs were used. Symbols rx, nk, In, and sc represent relaxed, nicked, linear, and supercoiled DNA, respectively.
Agarose gel-based DNA gyrase inhibition assays were performed in 30 µL of 1 ×gyrase buffer (35 mM Tris-HCl, 24 mM KCl, 4 mM MgCl2, 2 mM DTT, 1.75 mM ATP, 0.1 mg/mL BSA, 6.5% glycerol, pH7.5) containing 400 ng of rx pAB1 at 37° C. 100 ng of DNA gyrase was used to supercoil the rx pAB1 in the presence of different concentrations of a gyrase inhibitor. After 15 minutes of incubation with the inhibitor at 37° C., all reactions were stopped with 1 µL of stop solution (3% SDS and 250 mM EDTA). Samples were analyzed by electrophoresis in 1% w/v agarose gels followed by ethidium bromide staining and photographed under UV light.

Series [4] addresses E. coli DNA topoisomerase I (Escherichia coli (strain K12), UniProt P06612). In words: E. coli DNA topoisomerase I inhibition. The class given is biochemical. Conditions: gallates at 100 µM.
For series [5], the target named is T2, E. coli DNA topoisomerase IV (Escherichia coli (strain K12), UniProt P0AFI2+P20083). In words: E. coli DNA topoisomerase IV relaxation assay (gel-based). The class given is biochemical. Here is the method:
(§1) Relaxation assays by E. coli DNA topoisomerase IV and the ATPase assays were performed. […] Lane 1 is supercoiled plasmid pAB1. […] The supercoiled, fluorescently-labeled plasmid pAB1_FL905 was used.

Series [6] concerns the target T1, E. coli DNA gyrase. Briefly: biochemical. It is filed as biochemical.
Series [7] has as its target T1, E. coli DNA gyrase. Briefly: E. coli DNA gyrase ATPase assay. It is filed as biochemical. Conditions: AB-MECA and gallates at 100 µM. Here is the method: E. coli DNA gyrase ATPase assays were performed in 60 µL of 1 ×gyrase ATPase buffer (10 mM Tris.HCl (pH 7.5), 0.2 mM EDTA, 1 mM magnesium chloride, 1 mM DTT, and 2% (w/v) glycerol) containing 50 nM E. coli DNA gyrase, 200 ng rx pAB1, 0.8 mM Phosphoenol pyruvate, 1.2 units of Pyruvate kinase, 1.7 units of lactate dehydrogenase, and 0.4 mM of NADH at 37° C. After the reaction mixtures are incubated on ice for 5 minutes, 2 mM of ATP is added to initiate the reaction. Absorbance at OD340nm is monitored for up to 30 minutes at 37° C. in a spectrophotometer.

For series [8], the target named is human DNA topoisomerase IIα (Homo sapiens (Human), UniProt P11388). Briefly: Agarose gel-based inhibition assay against human DNA topoisomerase IIα. It is filed as biochemical. Conditions: gallates at 100 µM.
Sequence of human DNA topoisomerase IIα (P11388 whole entry): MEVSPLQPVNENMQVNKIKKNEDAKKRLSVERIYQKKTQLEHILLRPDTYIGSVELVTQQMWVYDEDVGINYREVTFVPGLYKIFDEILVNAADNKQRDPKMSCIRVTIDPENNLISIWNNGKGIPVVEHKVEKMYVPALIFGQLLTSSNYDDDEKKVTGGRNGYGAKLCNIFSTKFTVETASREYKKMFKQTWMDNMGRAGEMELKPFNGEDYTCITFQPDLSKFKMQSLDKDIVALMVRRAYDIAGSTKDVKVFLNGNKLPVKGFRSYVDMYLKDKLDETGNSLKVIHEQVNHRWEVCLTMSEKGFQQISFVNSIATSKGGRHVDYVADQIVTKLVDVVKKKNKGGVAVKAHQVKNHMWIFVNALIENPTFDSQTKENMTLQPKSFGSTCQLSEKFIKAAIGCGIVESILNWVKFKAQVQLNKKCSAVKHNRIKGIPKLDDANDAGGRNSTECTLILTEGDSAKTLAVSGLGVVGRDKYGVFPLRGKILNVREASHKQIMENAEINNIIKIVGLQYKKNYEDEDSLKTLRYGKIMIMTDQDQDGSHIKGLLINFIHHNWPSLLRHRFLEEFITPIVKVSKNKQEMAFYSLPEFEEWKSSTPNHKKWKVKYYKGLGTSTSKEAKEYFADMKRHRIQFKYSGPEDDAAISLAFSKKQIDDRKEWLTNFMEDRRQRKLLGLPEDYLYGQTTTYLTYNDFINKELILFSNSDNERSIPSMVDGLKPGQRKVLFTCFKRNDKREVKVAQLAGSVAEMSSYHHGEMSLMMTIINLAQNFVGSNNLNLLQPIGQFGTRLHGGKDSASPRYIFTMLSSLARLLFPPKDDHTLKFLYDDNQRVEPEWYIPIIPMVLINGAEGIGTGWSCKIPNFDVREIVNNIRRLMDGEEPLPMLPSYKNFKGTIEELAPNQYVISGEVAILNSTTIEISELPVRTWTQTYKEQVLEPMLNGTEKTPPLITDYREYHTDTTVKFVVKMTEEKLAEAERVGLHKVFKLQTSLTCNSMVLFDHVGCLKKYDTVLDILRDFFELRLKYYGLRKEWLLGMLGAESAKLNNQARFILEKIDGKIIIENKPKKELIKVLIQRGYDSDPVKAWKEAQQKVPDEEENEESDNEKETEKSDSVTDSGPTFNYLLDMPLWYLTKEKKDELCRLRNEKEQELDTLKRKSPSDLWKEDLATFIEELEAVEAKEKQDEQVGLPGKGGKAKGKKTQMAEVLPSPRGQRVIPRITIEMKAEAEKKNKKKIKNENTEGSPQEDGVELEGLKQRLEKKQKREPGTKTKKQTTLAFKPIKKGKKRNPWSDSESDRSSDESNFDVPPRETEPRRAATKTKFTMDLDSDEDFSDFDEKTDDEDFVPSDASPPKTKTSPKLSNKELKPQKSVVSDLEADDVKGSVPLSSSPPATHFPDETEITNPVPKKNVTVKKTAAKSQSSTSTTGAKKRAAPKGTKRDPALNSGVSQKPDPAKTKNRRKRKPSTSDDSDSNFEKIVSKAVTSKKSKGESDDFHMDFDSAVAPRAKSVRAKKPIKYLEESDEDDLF
A short description of another series: in vitro. The conditions noted are these: human.
The next series relates to E. coli (ATCC 25922). In words: Minimum inhibitory concentration, broth microdilution. Conditions: Escherichia coli.
The subject of another series is S. aureus (ATCC 14775). The series is described as above. The conditions noted are these: Staphylococcus aureus.
The subject of the next series is Mtb. In words: Mtb whole cell assay (% inhibition, MIC). The class given is cell-based, Mycobacterium tuberculosis. The conditions noted are these: Mycobacterium tuberculosis.
Series [9] has as its system NCI panel of 60 cancer cell lines. Conditions: up to 1 mM; results of NCI DTP; cited from earlier work.
A further series deals with M. abscessus. Briefly: MIC against M. abscessus. It is filed as cell-based, Mycobacterium abscessus. The conditions noted are these: Mycobacteroides abscessus.
Series [10] concerns the target T1, E. coli DNA gyrase. In words: DNA gyrase mediated DNA cleavage assay. Conditions: pBR322. It is filed as biochemical. Here is the method: 250 ng of supercoiled pBR322 plasmid were incubated with 50 nM of E. coli DNA gyrase in reactions containing 35 mM Tris-HCl, 24 mM KCl, 4 mM MgCl2, 2 mM DTT, 0.1 mg/mL BSA, 6.5% glycerol, and 1.75 mM ATP, in presence of 200 µM of compounds, at 37° C. for 15 min. Then, 0.2% (w/v) of SDS and 0.1 mg/mL proteinase K were added, and samples were incubated at 37° C. for 1 h. […] Samples were examined by electrophoresis in 1% w/v agarose gel containing 0.5 µg/mL ethidium bromide and photographed under UV light.

For the next series, the system named is B. subtilis (ATCC 6633). Briefly: Minimum inhibitory concentration, broth microdilution. The conditions noted are these: Bacillus subtilis, ATCC6633, read-out: MIC B. subtilis ATCC 6633. Background: Dilution methods test growth across graded concentrations, often in twofold steps.
The next series has as its system E. coli imp. In words: microbe, parasite or virus in culture. Conditions: Escherichia coli, read-out: MIC E. coli imp BAS3023.
Series [11] deals with T2, E. coli DNA topoisomerase IV. In words: SDFQ-based DNA relaxation assay with E. coli DNA topoisomerase IV. It is filed as biochemical. Here is the method:
as §1

In another series the test system is MRSA. Briefly: Minimum inhibitory concentration, broth microdilution. The conditions noted are these: Staphylococcus aureus, ATCC33591 / MRSA, read-out: MIC MRSA ATCC 33591.
For series [12], the target named is T1, E. coli DNA gyrase. In words: Agarose gel-based DNA gyrase inhibition assay. The class given is biochemical. Conditions: Table 8; read-out: IC50 Gyrase Gel-based. Here is the method:
100 ng of DNA gyrase was used to supercoil the rx pAB1 in the presence of different concentrations of a gyrase inhibitor. […] Samples were analyzed by electrophoresis in 1% w/v agarose gels followed by ethidium bromide staining and photographed under UV light.

Series [13] addresses T1, E. coli DNA gyrase. In words: SDFQ-based DNA gyrase inhibition assay. The class given is biochemical. The conditions noted are these: Table 8; read-out: IC50 Gyrase SDFQ. Here is the method:
100 ng of DNA gyrase was used to supercoil the rx pAB1_FL905 in the presence of different concentrations of a gyrase inhibitor. […] The IC50 values were estimated by nonlinear fitting of the following equation: […]
where F is the fluorescence intensity at the x concentration of an min inhibitor. Fmax and Fmin are the maximum and minimum fluorescence of the DNA sample, respectively. P is a slope parameter.

The mark [14] stands for this setting: read-out: IC50 against E. coli DNA gyrase.
The mark [15] stands for this setting: ATCC14775, read-out: MIC (µM) Sa.

Molecules are shown by their SMILES. “And” between values parts separate entries of the source, which are not always exact repeats. Identical values can stand only once. “Also recorded” adds a separate entry of the source. Like-named read-outs stand apart in the source and are kept apart here. Some results are limits rather than exact numbers.

Sequence of E. coli DNA topoisomerase I (P06612 whole entry, looked up): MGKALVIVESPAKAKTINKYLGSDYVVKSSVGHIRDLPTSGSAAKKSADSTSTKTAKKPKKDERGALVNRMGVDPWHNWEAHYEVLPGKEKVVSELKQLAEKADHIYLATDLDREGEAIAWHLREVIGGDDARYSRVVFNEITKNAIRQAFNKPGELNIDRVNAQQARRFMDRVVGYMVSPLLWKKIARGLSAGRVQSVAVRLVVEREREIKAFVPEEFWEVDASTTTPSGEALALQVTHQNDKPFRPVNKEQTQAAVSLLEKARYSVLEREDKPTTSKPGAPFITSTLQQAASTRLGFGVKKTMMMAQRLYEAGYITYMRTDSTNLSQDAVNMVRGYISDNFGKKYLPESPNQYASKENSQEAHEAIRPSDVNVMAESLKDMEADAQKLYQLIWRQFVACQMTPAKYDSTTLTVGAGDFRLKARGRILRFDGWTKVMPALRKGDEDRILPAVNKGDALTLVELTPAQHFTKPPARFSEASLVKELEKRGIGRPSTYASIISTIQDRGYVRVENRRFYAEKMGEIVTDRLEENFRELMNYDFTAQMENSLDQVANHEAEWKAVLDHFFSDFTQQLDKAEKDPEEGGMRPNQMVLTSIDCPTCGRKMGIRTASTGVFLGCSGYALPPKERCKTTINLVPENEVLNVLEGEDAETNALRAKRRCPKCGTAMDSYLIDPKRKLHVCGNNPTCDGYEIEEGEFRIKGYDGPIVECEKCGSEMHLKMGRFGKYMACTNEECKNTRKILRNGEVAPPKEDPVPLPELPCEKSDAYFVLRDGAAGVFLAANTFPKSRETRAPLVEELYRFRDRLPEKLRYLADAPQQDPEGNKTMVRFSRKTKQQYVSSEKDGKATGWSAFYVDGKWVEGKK
T2 sequence (P0AFI2 whole entry, looked up): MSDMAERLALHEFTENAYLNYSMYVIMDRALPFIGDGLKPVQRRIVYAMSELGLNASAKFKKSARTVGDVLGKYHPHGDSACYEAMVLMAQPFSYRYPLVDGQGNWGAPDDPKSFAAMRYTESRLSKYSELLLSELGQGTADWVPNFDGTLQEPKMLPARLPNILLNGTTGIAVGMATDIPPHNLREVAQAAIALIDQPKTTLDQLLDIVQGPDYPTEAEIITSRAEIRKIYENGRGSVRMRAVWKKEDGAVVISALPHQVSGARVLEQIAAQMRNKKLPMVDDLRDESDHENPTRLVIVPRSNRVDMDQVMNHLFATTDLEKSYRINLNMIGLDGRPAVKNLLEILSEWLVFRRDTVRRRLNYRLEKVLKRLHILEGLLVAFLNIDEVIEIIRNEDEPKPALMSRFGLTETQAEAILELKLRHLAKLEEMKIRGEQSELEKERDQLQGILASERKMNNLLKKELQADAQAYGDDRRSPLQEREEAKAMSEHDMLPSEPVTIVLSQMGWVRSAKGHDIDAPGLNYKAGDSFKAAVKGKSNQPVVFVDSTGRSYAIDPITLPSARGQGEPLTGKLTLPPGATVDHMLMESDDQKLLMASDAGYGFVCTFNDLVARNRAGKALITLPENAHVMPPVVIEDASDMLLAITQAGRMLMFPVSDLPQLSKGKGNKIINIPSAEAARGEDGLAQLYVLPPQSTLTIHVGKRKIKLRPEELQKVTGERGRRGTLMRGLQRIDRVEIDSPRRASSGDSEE
T2 sequence (P20083 whole entry, looked up): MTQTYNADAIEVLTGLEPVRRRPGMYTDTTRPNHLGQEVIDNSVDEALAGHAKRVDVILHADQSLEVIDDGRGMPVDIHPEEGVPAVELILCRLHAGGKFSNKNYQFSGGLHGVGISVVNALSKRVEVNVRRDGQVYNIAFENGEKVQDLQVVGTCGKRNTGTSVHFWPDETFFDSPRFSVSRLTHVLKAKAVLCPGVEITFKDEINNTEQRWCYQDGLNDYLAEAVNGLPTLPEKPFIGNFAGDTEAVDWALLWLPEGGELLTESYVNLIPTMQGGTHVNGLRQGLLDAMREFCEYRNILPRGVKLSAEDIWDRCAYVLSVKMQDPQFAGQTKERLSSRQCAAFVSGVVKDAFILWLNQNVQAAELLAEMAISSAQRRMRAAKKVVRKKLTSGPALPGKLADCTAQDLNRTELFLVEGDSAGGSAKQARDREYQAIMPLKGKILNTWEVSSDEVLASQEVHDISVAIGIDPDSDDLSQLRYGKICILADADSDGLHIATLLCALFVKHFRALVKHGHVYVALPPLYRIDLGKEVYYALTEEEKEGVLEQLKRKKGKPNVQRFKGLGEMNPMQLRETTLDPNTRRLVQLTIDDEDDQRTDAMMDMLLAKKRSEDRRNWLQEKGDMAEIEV
Description for B. subtilis (ATCC 6633): (§2) Antibacterial minimum inhibitory concentrations (MICs) were obtained from three independent experiments using broth microdilution methods in 96-well plates according to Clinical and Laboratory Standards Institute guidelines. Cells were culture from singles colonies in MHIIB medium for 24 h at 37° C. in agitation (200 RPM). The cultures were then diluted using the same media to reach an OD600 of 0.1. Then, 50 µL of the diluted cultures were added to the plates holding 50 µL of serially diluted compounds in MHIIB. The plates were incubated at 37° C. for 20 h. The starting inoculum was fixated to 10^5 colony-forming units per ml.
Description for E. coli (ATCC 25922): as §2
Description for E. coli imp: as §2
Description for MRSA: as §2

For the compound `N[C@@H]1[C@H]2CN(c3nc4c(cc3F)c(=O)c(C(=O)O)cn4-c3ccc(F)cc3F)C[C@@H]12` [trovafloxacin], the “inhibition activities against E. coli DNA gyrase” value on E. coli DNA gyrase [1] (LOPAC library, 5 µM) is on record as “more than 40%”.

As to `CCn1cc(C(=O)O)c(=O)c2cc3c(cc21)OCO3` [oxolinic acid], the IC50 (usually the point on the concentration scale where inhibition reaches its midpoint) on E. coli DNA gyrase [2] was more than 30 µM.

For the compound `CCn1cc(C(=O)O)c(=O)c2ccc(C)nc21` [nalidixic acid], the concentration for half-maximal inhibition (IC50) on E. coli DNA gyrase [2] was more than 30 µM.

Turning to `CC1COc2c(N3CCN(C)CC3)c(F)cc3c(=O)c(C(=O)O)cn1c23` (centres unmarked) [ofloxacin], the inhibition (in general, the change of the read-out against control, counted positive when it falls) at 5 µM at E. coli DNA gyrase [1] was more than 40%.

For the compound `CNC(=O)[C@H]1O[C@@H](n2cnc3c(NCc4ccc(N)cc4)ncnc32)[C@H](O)[C@@H]1O` [AB-MECA, reference compound], in [3], the “inhibition of human DNA topoisomerase I” value is recorded as “did not inhibit”. In addition, on Mtb DNA gyrase, the “inhibition of Mtb DNA gyrase activities” value is given as “did not inhibit”. Moreover, the “inhibition of E. coli DNA topoisomerase I” value in [4] is “did not inhibit”. Further, in [5], the “inhibition of E. coli DNA topoisomerase IV” value was “did not inhibit”. Further, the “inhibition of E. coli DNA gyrase activities” value against E. coli DNA gyrase [6] was “does not inhibit”. Further, at E. coli DNA gyrase [7], the “inhibition of the ATPase activities of E. coli DNA gyrase” value was “did not inhibit”. Besides, the “inhibition of human DNA topoisomerase IIα” value in series [8] was “did not inhibit”.

As to `CNC(=O)[C@H]1O[C@@H](n2cnc3c(NCc4cccc(I)c4)ncnc32)[C@H](O)[C@@H]1O` [IB-MECA, reference compound], the “inhibition of human DNA topoisomerase I” value in [3] is “did not inhibit”. In addition, the “inhibition of Mtb DNA gyrase activities” value at Mtb DNA gyrase is recorded as “did not inhibit”. The “inhibition of E. coli DNA topoisomerase I” value in [4] is reported as “did not inhibit”. Moreover, in series [5], the “inhibition of E. coli DNA topoisomerase IV” value was “did not inhibit”. Also, the concentration for half-maximal inhibition (IC50) at E. coli DNA gyrase [6] (setting [14]) worked out at 50.7 µM. On E. coli DNA gyrase [7], the “inhibition of the ATPase activities of E. coli DNA gyrase” value was “ATP competitive inhibitors; also recorded: inhibition”. The “inhibition of human DNA topoisomerase IIα” value in series [8] was “did not inhibit”.

For the compound `C[n+]1c(-c2ccc(/C=C/C=N/NC(=O)c3ccc(C(=O)N/N=C/c4ccc(-c5cn6ccccc6[n+]5C)cc4)cc3)cc2)cn2ccccc21` [Compound 261], the concentration for half-maximal inhibition (IC50) was more than 200 µM in “in vitro” and 9.3 µM at Mtb DNA gyrase. In addition, the MIC was 50 µM with E. coli (ATCC 25922) (ATCC25922, read-out: MIC (µM) Ec, E. coli strain ATCC25922); more than 200 µM in the series with S. aureus (ATCC 14775) (setting [15]); 109 µM against Mtb; 22.9 µM in the series with M. abscessus. Besides, the “cytotoxicity against the NCI panel of 60 cancer cell lines” value in series [9] is listed as “no cytotoxicity”.

On to `CNC(=O)[C@H]1O[C@@H](n2cnc3c(NCc4cccc(I)c4)nc(Cl)nc32)[C@H](O)[C@@H]1O` [chloro-IB-MECA, reference compound], for which, in series [3], the “inhibition of human DNA topoisomerase I” value is listed as “did not inhibit”. In addition, the “inhibition of Mtb DNA gyrase activities” value on Mtb DNA gyrase is listed as “did not inhibit”. For the same compound, in series [4], the “inhibition of E. coli DNA topoisomerase I” value is given as “did not inhibit”. In [5], the “inhibition of E. coli DNA topoisomerase IV” value is “did not inhibit”. Moreover, the IC50 on E. coli DNA gyrase [6] (IC50 against E. coli DNA gyrase) is 2.4 µM; at E. coli DNA gyrase [6] (setting [14]) it was less than 5 µM. Moreover, the “inhibition of the ATPase activities of E. coli DNA gyrase” value against E. coli DNA gyrase [7] is given as “ATP competitive inhibitors; also recorded: inhibition”. Besides, the “E. coli DNA gyrase-mediated DNA breaks and nicking” value on E. coli DNA gyrase [10] was “did not DNA double stranded DNA breaks”. Besides, the “inhibition of human DNA topoisomerase IIα” value in series [8] is “did not inhibit”.

For the compound `C[n+]1c(-c2ccc(NC(=O)c3ccc(C(=O)Nc4ccc(-c5cn6ccccc6[n+]5C)cc4)cc3)cc2)cn2ccccc21` [Compound 263], the IC50 in the series “in vitro” is more than 200 µM; at Mtb DNA gyrase, 7.7 µM. In addition, the MIC in the series on S. aureus (ATCC 14775) (setting [15]) is 0.39 µM; in the series with Mtb, 11.3 µM; with M. abscessus it was more than 200 µM. Also, in series [9], the “cytotoxicity against the NCI panel of 60 cancer cell lines” value is reported as “no cytotoxicity”.

Consider `O=C(O)C1=CC(=C(c2ccc(O)c(C(=O)O)c2)c2ccc(O)c(C(=O)O)c2)C=CC1=O` [aurintricarboxylic acid], for which the inhibition at 5 µM at E. coli DNA gyrase [1] is more than 40%.

As to `CCCCOC(=O)c1cc(O)c(O)c(O)c1` [Butyl gallate, butyl gallate], the MIC with E. coli (ATCC 25922) (ATCC25922, read-out: MIC E coli ATCC 25922, Table 9) is more than 200 µM; with B. subtilis (ATCC 6633), > 64 µg/mL and > 200 µM; with S. aureus (ATCC 14775) (ATCC14775, read-out: MIC S. aureus ATCC 14775), more than 200 µM; in the series on E. coli imp, more than 200 µM; in the series on MRSA, more than 200 µM. The half-inhibitory concentration (IC50) is more than 100 µM in series [11]; more than 100 µM in [5] (IC50 Topoisomerase IV Gel-based, Table 8); more than 100 µM on E. coli DNA gyrase [12]; more than 100 µM at E. coli DNA gyrase [13].

Source of the values: patent US20230364057A1, “BACTERIAL DNA GYRASE INHIBITORS AND METHODS OF USE THEREOF” (THE FLORIDA INTERNATIONAL UNIVERSITY BOARD OF TRUSTEES, priority 2022, published 2023).
